Data reported in paper PMC10528299, “Targeting FAK/PYK2 with SJP1602 for Anti-Tumor Activity in Triple-Negative Breast Cancer” (Current Issues in Molecular Biology, 2023).

Columns and labels:
Test in all cases: Eurofins kinase profiling
Assay type in all cases: biochemical
[1] = molecular target: T1, ROCK-I(h) (Homo sapiens, UniProt Q13464); conditions: read-out: residual kinase activity ROCK-I(h)
T1 construct: purchased Eurofins KinaseProfiler
Procedure, shortened: (§1)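 Radiometric detection, with radiolabeled phosphate as substrate, gave the kinase activity after each enzyme was incubated with 1 µM test compound. The run belonged to a 110-assay profiling panel.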

[2] = molecular target: T2, Tie2 (h) (Homo sapiens, UniProt Q02763); conditions: read-out: residual kinase activity Tie2 (h)
T2 construct: purchased Eurofins KinaseProfiler
Procedure, shortened: as §1

[3] = molecular target: T3, TAK1(h) (Homo sapiens, UniProt O43318); conditions: read-out: residual kinase activity TAK1(h)
T3 construct: purchased Eurofins KinaseProfiler
T3 sequence (O43318 1-303 limits assumed): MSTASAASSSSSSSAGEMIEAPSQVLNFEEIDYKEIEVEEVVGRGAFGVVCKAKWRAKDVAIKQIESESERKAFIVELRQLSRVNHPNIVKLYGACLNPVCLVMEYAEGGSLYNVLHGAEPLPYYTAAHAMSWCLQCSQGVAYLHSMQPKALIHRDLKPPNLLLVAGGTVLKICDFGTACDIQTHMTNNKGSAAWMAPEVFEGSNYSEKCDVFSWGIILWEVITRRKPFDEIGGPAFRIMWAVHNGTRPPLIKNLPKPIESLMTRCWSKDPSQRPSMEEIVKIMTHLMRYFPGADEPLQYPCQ
Procedure, shortened: as §1

[4] = molecular target: T4, PKCθ(h) (Homo sapiens, UniProt Q04759); conditions: read-out: residual kinase activity PKCθ(h)
T4 construct: purchased Eurofins KinaseProfiler
Procedure, shortened: as §1

[5] = molecular target: T5, Flt3(D835Y)(h) (Homo sapiens, UniProt P36888, D835Y); conditions: read-out: residual kinase activity Flt3(D835Y)(h)
T5 construct: purchased Eurofins KinaseProfiler
T5 sequence (P36888 27-993 D835Y): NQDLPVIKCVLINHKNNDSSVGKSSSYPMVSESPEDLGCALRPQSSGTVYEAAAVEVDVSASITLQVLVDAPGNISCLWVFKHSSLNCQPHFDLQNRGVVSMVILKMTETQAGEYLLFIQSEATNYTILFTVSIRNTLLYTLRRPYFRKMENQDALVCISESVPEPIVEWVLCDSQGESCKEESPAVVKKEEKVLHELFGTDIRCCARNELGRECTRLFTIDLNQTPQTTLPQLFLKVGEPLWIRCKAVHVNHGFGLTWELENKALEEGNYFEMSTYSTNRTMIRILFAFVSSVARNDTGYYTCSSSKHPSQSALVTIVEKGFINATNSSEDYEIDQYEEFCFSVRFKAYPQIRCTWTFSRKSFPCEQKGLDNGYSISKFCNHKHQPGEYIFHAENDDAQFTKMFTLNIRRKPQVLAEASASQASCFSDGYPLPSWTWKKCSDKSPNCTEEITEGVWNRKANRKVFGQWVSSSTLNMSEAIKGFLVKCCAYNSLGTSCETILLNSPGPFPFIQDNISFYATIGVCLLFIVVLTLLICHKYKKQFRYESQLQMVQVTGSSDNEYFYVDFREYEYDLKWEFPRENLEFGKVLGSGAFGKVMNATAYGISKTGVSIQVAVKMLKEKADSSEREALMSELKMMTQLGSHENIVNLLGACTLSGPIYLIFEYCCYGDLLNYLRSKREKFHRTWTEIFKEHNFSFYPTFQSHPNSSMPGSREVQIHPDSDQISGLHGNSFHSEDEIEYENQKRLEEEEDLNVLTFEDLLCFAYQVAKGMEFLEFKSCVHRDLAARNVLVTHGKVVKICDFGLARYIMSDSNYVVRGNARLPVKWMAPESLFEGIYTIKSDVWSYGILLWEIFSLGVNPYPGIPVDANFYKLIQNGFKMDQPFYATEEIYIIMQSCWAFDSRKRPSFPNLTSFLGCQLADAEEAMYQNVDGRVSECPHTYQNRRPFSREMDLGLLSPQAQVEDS
Procedure, shortened: as §1

[6] = molecular target: T6, DDR2(h) (Homo sapiens, UniProt Q16832); conditions: read-out: residual kinase activity DDR2(h)
T6 construct: purchased Eurofins KinaseProfiler
T6 sequence (Q16832 22-855): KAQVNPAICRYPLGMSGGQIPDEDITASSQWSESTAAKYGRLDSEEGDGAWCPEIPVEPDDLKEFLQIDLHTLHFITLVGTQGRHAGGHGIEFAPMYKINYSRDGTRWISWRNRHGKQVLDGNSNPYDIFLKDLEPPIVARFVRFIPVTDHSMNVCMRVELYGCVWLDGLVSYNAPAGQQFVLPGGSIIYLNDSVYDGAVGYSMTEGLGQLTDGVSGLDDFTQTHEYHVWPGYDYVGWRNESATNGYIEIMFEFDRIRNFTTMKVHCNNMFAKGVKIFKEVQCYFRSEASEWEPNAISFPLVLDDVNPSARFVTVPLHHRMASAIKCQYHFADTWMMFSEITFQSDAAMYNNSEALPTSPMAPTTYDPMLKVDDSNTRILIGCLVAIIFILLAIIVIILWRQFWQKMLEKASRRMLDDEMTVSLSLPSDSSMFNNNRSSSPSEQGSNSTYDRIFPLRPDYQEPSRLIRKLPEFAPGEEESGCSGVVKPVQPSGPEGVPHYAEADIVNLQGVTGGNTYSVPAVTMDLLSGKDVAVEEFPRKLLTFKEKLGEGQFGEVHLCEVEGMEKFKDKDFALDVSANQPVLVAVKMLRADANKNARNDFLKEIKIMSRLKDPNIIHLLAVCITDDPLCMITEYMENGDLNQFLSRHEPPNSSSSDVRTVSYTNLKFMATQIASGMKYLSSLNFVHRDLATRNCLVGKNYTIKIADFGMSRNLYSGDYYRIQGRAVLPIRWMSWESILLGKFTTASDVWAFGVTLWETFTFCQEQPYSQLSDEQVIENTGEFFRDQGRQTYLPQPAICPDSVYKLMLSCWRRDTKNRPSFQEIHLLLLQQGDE
Procedure, shortened: as §1

[7] = molecular target: T7, CK1γ1(h) (Homo sapiens, UniProt Q9HCP0); conditions: read-out: residual kinase activity CK1γ1(h)
T7 construct: purchased Eurofins KinaseProfiler
Procedure, shortened: as §1

[8] = molecular target: T8, Fms(h) (Homo sapiens, UniProt P07333); conditions: read-out: residual kinase activity Fms(h)
T8 construct: purchased Eurofins KinaseProfiler
Procedure, shortened: as §1

[9] = molecular target: T9, ErbB4(h) (Homo sapiens, UniProt Q15303); conditions: read-out: residual kinase activity ErbB4(h)
T9 construct: purchased Eurofins KinaseProfiler
Procedure, shortened: as §1

[10] = molecular target: T10, PI3 Kinase (p120g)(h) (Homo sapiens, UniProt P48736); conditions: read-out: residual kinase activity PI3 Kinase (p120g)(h)
T10 construct: purchased Eurofins KinaseProfiler
Procedure, shortened: as §1

T10 sequence (P48736 whole entry): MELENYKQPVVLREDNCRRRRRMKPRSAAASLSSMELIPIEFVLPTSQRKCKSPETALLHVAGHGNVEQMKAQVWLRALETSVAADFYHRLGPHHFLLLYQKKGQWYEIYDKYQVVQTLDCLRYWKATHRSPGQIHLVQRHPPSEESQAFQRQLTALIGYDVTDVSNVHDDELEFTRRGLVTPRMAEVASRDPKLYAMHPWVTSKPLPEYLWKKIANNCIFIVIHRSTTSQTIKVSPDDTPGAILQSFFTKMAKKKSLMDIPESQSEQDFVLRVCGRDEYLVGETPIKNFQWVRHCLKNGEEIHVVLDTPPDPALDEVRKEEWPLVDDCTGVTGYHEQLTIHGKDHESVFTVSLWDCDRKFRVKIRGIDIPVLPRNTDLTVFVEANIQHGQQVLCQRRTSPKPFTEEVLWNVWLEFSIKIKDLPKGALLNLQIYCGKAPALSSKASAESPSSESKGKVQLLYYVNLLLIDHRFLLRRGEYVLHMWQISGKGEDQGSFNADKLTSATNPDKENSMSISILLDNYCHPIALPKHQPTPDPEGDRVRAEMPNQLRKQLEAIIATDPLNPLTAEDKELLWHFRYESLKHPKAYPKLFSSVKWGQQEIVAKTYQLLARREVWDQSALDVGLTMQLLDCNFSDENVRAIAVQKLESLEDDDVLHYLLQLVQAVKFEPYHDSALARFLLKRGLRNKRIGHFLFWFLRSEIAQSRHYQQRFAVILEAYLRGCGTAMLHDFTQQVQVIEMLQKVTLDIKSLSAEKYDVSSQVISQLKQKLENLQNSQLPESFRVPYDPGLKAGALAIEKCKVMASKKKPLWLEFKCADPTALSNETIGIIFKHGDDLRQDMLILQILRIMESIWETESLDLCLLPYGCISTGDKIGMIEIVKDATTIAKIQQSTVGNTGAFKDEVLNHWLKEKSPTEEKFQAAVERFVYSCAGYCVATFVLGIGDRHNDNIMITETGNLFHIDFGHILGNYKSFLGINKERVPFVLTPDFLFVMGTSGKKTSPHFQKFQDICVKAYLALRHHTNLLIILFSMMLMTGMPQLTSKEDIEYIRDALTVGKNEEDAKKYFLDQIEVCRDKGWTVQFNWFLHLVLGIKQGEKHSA
T7 sequence (Q9HCP0 whole entry): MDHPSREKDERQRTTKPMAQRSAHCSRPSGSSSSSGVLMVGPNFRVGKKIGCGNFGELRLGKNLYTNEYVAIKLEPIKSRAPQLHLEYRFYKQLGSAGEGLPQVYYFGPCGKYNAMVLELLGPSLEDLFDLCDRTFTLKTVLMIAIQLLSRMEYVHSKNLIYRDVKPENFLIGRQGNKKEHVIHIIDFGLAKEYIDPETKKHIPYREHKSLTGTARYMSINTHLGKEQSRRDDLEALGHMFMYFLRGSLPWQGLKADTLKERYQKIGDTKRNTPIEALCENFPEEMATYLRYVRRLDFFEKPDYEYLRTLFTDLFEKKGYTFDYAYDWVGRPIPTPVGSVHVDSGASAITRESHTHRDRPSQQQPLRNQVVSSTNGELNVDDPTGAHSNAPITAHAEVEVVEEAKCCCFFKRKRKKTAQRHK
T8 sequence (P07333 20-972): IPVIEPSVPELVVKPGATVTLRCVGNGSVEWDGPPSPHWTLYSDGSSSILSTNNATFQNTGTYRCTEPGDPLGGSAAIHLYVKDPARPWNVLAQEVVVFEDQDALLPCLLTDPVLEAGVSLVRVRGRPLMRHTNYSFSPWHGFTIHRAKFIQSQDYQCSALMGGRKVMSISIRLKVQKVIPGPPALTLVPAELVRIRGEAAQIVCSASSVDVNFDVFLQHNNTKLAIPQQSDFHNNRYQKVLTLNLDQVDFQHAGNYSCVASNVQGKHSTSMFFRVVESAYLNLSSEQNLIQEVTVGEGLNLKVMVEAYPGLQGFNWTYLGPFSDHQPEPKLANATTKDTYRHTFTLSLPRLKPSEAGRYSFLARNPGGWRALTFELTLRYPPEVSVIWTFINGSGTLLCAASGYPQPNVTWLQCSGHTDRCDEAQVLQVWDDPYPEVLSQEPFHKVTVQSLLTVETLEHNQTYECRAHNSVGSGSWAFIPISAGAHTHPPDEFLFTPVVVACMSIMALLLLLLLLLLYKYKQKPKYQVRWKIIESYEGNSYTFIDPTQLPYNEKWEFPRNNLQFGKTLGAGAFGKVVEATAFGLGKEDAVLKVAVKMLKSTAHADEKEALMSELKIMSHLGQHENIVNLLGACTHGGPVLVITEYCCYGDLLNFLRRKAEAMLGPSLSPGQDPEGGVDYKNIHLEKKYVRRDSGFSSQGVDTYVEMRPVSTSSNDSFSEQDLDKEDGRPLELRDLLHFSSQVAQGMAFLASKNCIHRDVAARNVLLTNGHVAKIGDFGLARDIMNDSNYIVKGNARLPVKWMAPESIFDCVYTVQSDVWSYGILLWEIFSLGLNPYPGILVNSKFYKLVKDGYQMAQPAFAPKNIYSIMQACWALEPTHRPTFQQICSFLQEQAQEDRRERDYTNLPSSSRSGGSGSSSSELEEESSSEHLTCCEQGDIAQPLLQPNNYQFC
T2 sequence (Q02763 23-1124): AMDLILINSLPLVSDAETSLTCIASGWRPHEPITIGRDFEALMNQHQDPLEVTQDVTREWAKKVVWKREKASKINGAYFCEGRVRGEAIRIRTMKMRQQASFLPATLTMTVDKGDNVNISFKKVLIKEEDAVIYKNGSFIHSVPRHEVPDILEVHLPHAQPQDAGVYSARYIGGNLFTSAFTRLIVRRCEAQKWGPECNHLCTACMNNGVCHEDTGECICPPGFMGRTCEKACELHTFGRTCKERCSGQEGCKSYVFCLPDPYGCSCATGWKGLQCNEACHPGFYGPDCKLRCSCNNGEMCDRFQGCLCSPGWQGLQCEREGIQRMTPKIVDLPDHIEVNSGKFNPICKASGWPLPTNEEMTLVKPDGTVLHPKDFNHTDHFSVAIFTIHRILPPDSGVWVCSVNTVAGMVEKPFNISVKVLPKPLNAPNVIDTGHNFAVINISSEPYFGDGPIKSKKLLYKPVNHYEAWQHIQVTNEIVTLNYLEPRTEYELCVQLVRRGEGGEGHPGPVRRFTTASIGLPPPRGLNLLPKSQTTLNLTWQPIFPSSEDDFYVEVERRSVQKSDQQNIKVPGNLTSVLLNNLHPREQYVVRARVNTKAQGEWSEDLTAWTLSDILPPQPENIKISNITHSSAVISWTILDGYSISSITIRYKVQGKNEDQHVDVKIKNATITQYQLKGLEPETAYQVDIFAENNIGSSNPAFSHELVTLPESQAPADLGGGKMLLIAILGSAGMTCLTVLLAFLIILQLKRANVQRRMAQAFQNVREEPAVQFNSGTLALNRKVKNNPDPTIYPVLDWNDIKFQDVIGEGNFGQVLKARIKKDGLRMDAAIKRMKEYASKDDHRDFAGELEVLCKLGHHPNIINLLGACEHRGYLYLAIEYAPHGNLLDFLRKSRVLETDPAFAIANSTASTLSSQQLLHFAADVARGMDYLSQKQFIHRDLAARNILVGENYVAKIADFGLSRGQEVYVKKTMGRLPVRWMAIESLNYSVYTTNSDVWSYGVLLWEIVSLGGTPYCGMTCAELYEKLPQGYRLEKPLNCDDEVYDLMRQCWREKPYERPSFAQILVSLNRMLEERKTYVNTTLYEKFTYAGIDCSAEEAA
T9 sequence (Q15303 26-1308): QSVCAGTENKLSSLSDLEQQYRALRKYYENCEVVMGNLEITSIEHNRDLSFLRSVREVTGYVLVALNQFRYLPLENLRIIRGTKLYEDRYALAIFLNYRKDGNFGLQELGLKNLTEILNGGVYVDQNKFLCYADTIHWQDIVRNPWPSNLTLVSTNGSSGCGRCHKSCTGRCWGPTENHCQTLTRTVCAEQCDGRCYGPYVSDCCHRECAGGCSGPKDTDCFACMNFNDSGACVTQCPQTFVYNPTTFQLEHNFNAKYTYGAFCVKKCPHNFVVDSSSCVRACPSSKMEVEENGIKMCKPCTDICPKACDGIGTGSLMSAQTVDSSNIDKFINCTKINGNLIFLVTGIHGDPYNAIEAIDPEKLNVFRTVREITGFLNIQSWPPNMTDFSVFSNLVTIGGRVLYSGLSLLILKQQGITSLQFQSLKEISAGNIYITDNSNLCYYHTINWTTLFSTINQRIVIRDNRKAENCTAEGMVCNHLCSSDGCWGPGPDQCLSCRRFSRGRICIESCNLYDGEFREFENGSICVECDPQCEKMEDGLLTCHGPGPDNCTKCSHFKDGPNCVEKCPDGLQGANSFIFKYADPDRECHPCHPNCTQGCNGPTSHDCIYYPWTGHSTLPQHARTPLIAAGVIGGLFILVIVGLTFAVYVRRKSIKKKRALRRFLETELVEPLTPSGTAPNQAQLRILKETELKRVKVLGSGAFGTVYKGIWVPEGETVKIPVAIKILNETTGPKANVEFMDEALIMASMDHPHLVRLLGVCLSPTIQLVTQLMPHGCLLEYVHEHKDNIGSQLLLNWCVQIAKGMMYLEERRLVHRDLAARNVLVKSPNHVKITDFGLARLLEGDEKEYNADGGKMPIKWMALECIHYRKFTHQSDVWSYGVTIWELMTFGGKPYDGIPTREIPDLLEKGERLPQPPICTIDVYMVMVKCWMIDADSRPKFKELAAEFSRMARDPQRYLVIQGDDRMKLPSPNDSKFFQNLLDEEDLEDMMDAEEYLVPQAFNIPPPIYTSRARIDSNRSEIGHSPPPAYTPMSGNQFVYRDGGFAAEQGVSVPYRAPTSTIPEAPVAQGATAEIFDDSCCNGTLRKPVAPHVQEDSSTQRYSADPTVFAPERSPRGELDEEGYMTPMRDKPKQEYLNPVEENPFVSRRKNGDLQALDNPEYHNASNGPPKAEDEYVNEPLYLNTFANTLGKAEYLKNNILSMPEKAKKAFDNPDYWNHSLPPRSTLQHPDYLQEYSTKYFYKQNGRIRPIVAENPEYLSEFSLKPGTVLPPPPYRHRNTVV

Compound	remaining activity at 1 µM [1] [%]	remaining activity at 1 µM [2] [%]	remaining activity at 1 µM [3] [%]	remaining activity at 1 µM [4] [%]	remaining activity at 1 µM [5] [%]	remaining activity at 1 µM [6] [%]	remaining activity at 1 µM [7] [%]	remaining activity at 1 µM [8] [%]	remaining activity at 1 µM [9] [%]	remaining activity at 1 µM [10] [%]
CONC(=O)c1ccccc1Nc1cc(Nc2cc(C)nn2C(C)C)ncc1Cl [GSK2256098]	107	108	95	96	76	138	99	88	81	101
CNC(=O)c1cccc(C)c1Nc1nc(Nc2ccc(N3CCN(C4C5CC6CC4CC(O)(C6)C5)CC3)cc2OC)ncc1C(F)(F)F (stereo not drawn) [SJP1602, 2-((2-((4-(4-((2s,5r)-5-hydroxyadamantan-2-yl)piperazin-1-yl)-2-methoxyphenyl)amino)-5-(trifluoromethyl)pyrimidin-4-yl)amino)-N,3-dimethylbenzamide]	101	105	113	93	87	102	105	85	99	85
CNC(=O)c1ccc(Nc2ncc(C(F)(F)F)c(NCc3nccnc3N(C)S(C)(=O)=O)n2)cc1 [VS-6063, Defactinib]	103	82	71	63	7	94	81	67	104	104
